“And” between values parts separate entries of the source, which are not always exact repeats. Equal values may be shown once. Read-outs that look alike come from different tables or passages of the source. Each block holds one compound with its values, some of them ahead of it.
How the values were obtained:
[1] = system: P. falciparum (Dd2 strain); assay: ABS P. falciparum growth inhibition, SYBR Green I assay, 72 h endpoint; type: cell-based, Plasmodium falciparum; conditions: for EC50: Plasmodium falciparum, DD2, SYBR Green I, 72 h endpoint, read-out: Dd2 strain P. falciparum growth inhibition EC50; for loss of growth inhibition potency (EC50) relative to 1: Dd2 strain
Protocol: Parasites were maintained in O-positive human erythrocytes (Grifols, Memphis, TN, USA) at 5% hematocrit in RPMI 1640 medium supplemented with 5 g L^−1 Albumax I (Gibco Life Technologies), 2 g L^−1 glucose (Sigma-Aldrich), 2.3 g L^−1 sodium bicarbonate (Sigma-Aldrich), 370 μM hypoxanthine (Sigma-Aldrich), 25 mM HEPES, and 20 mg L^−1 gentamicin (Gibco Life Technologies). The parasites were kept at 37 °C under reduced-oxygen conditions (5% CO2, 5% O2, and 90% N2).
(§1) […]. MMV008138 (1) was used as control. The percentage of growth was normalized to that of untreated control parasites in the presence of 0.1% DMSO. Background determinations were made using uninfected erythrocytes. Two or more independent experiments in duplicate were performed. The EC50 values were calculated with GraphPad Prism 9 (GraphPad Software Ltd.) using nonlinear regression curve fitting with variable slope (four parameters) and represent the average and their standard error of the mean (S.E.M.). To assess whether 20a–e specifically targeted the apicoplast, the recovery of growth in the presence of inhibitor and isopentenyl diphosphate (IPP) was performed as described previously.[8] Briefly, parasites were grown in the presence or absence of 200 μM IPP along with a serial dilution (10 μM to 0.01 μM) or single concentration (10 or 20 μM) of drug. […] All conditions were set in 96-well half area plates using highly synchronous ring-stage parasite cultures (100 μL per well at 1% hematocrit and 1% parasitemia) and incubated for 72 h under normal culture conditions. Parasite growth was measured by the SYBR green I assay.

[2] = system: Plasmodium berghei ANKA expressing luciferase (PbGFP-Luccon); assay: In vivo efficacy in P. berghei-infected mice (luminescence on Day 7)
Protocol: 2. In vivo efficacy studies of 1 (NYU) in P. berghei-infected mice (po and iv) Efficacy of 1 in P. berghei-infected mice was assessed at the Anti-Infectives Core Facility, Department of Microbiology, Grossman School of Medicine, New York University.
A. Oral Administration Protocol
Three groups of five female Swiss Webster mice weighing 25 to 30 g were used for vehicle […]
berghei ANKA expressing luciferase (PbGFP-Luccon) obtained from a donor infected mouse.10 […]
2 to 6 and imaged on day 7.
Figure S1. Dosing and imaging timeline of P. berghei-infected mice. […]
Day 7 as described in the text.
The vehicle for all groups was 0.5% (hydroxypropyl)methyl cellulose, 0.5% Tween-80.
For the surviving mice, o n day 7 after infection, mice were anesthetized by inhalation of isofluorane and injected via i.p. with 150 mg/kg of luciferase substrate dissolved in PBS (D-Luciferin Potassium Salt , Gold Biotechnology ).
Mice were imaged 5 to 10 min after inj ection of luciferin using an IVIS imager (Lumina II In Vivo Imaging System; Perkin -Elmer). The data acquisition and analysis were performed with LivingImage (Xenogen). Accumulated light intensity was measured in each mouse to determine the baseline infection levels before treatment .
(1 picture or pasted object on this page, not shown here)
B. IV Administration Protocol
One group of four female Swiss Webster mice weighing 25 to 30 g were used for vehicle control, and groups of five mice were used for 1 treatment (IV, 2 x 30 mg/kg/d) and the positive […]
On Day 0, mice were infected via intraperitoneal (i.p.) […]
from a donor infected mouse. 10 As shown below in Figure S2 (and legend), mice were treated […]
Figure S2. Dosing and imaging timeline of P. berghei-infected mice. Vehicle and 1 (30 mpk) treatments were administered IV twice -daily on Days 2-6. […]
administered i .p. once-daily. Mice were imaged on Day 7, as described in the text.
The vehicle for this study was 30%PEG, 40% Captisol (30%w/v solution).
Table S2. Luminescence Data after background subtraction for IV dosing of Vehicle, 1, and IP […]
Table S9. Concentration of 20c vs time in mice. […]
Figure S6. Dosing and imaging timeline of P. berghei-infected mice. […]

[3] = system: P. falciparum (Dd2 strain); conditions: 72 h exposure, multidrug-resistant Dd2 strain; reported values; read-out: Dd2 strain EC50; cited from earlier work
[4] = system: P. falciparum (Dd2 strain); assay: Metabolic rescue of parasite growth by isopentenyl diphosphate (IPP) supplementation; type: cell-based, Plasmodium falciparum; conditions: drug at 10 μM
Protocol: as §1

[5] = Mouse microsomal stability (authors' laboratory, UPLC/MS/MS); conditions: presence of NADPH
Protocol: Mouse microsomal stability of 20a, 20c, 20d was first assessed in our laboratory. […]
and coumarin were used as controls . Microsomal stability was assessed by ultra-performance liquid chromatography and high -resolution mass spectrometry […]
MA). Potassium phosphate monobasic, potassium phosphate dibasic, and coumarin were purchased from Sigma-Aldrich (St. Louis, MO). Briefly, compound incubations were carried out by the addition of mouse liver microsomes (0.5 mg/ml) in 0.05 M potassium phosphate buffer (pH 7.4), solution A and B, and preincubated at 37°C for 5 min. Control experiments were also carried out in the absence of NADPH solution A and B. Coumarin reaction was used as positive control. Reactions were terminated by adding acetonitrile. Sample analysis was performed on an IonKey/MS system composed of an ACQUITY UPLC M-Class, the ionKey source, and an iKey BEH C18 130 Å 1.7 µm 150 µm x 50 mm column coupled to a Synapt G2-Si mass spectrometer (Waters Corporation, Milford, MA, USA). Separation was accomplished using a binary gradient system consisting of 0.1% formic acid in water (mobile phase A) and 0.1% formic acid in acetonitrile (mobile phase B). The linear gradient was programmed as follows: 0-3 min 1% B, 3- […]
was 3 µL/min, the injection volume was 3 µL in full loop mode, and the iKey temperature was set at 40°C. MS analyses were performed acquiring in MSE mode from 80 to 1500 m/z in positive electrospray ionization mode with a capillary voltage of 3 kV. Data were collected in two channels all the time: low collision energy (6.0 V), for the molecular ions, and high collision energy (15-40 V), for product ions. The source temperature was set at 110°C. Leucine […]
scan at 20 s intervals. Infusion flow rate for lock mass was 1 μL/min. The microsomal stability was determined using MassLynx software (Waters Corporation, Milford, MA, USA). Relative amounts were calculated by comparing the peak area of each evaluated compound at time 0 minutes to its corresponding area at times 45, 90 and 180 minutes to return a ratio.

[6] = Table S2, Days 2-6, imaged Day 7, Cmpd 1 30 mg/kg 2 x daily IV, CQ 20 mg/kg 1 x daily i.p.
[7] = Table 2, enantiopure, average ± S.E.M

EC50 ([1]; Table 1, racemic samples): > 10 µM
SMILES: Cc1cccc2[nH]c3c(c12)C[C@@H](C(=O)O)N[C@@H]3c1ccc(Cl)cc1Cl (racemic) [(±)-16a]

EC50 ([1]; Table 1, racemic samples): > 10 µM
SMILES: Cc1ccc2[nH]c3c(c2c1)C[C@@H](C(=O)O)N[C@@H]3c1ccc(Cl)cc1Cl (racemic) [(±)-16b]

EC50 ([1]; Table 1, racemic samples): > 10 µM
SMILES: Cc1ccc2c3c([nH]c2c1)[C@@H](c1ccc(Cl)cc1Cl)N[C@H](C(=O)O)C3 (racemic) [(±)-16c]

EC50 ([1]; Table 1, racemic samples): > 10 µM
SMILES: Cc1cccc2c3c([nH]c12)[C@@H](c1ccc(Cl)cc1Cl)N[C@H](C(=O)O)C3 (racemic) [(±)-16d]

EC50 ([1]; Table 1, racemic samples): > 10 µM
SMILES: O=C(O)[C@@H]1Cc2c([nH]c3cccc(C(F)(F)F)c23)[C@@H](c2ccc(Cl)cc2Cl)N1 (racemic) [(±)-17a]

EC50 ([1]; Table 1, racemic samples): 1.25 to 2.5 µM
SMILES: O=C(O)[C@@H]1Cc2c([nH]c3cc(C(F)(F)F)ccc23)[C@@H](c2ccc(Cl)cc2Cl)N1 (racemic) [(±)-17c]

EC50 ([1]; Table 1, racemic samples): > 10 µM
SMILES: O=C(O)[C@@H]1Cc2c([nH]c3ccc(Br)cc23)[C@@H](c2ccc(Cl)cc2Cl)N1 (racemic) [(±)-18b]

EC50 ([1]; Table 1, racemic samples): > 10 µM
SMILES: O=C(O)[C@@H]1Cc2c([nH]c3cccc(Cl)c23)[C@@H](c2ccc(Cl)cc2Cl)N1 (racemic) [(±)-19a]

SMILES: CCN(CC)CCCC(C)Nc1ccnc2cc(Cl)ccc12 (centres unmarked) [CQ, chloroquine]
Luminescence AVG ([2]; Table S1, oral 1 x daily Days 2-6, imaged Day 7, CQ 20 mg/kg): 4.65E+03
Live/Dead and luminescence, individual mice ([2]; Table S1, oral 1 x daily Days 2-6, imaged Day 7, Cmpd 1 45 mg/kg, CQ 20 mg/kg): 4.72E+03 and 4.45E+03 and 4.90E+03 and 4.60E+03 and 4.61E+03
Luminescence after background subtraction AVG [2, 6]: 2.29E+03
Luminescence after background subtraction, individual mice [2, 6]: 0.00E+00 and 4.64E+03 and 2.76E+03 and 3.48E+03
Luminescence after background subtraction, individual mice ([2]; Table S10, 40 mg/kg 1 x daily PO Days 2-6, imaged Day 7): 4.90E+03 and 3.85E+03 and 4.20E+03
treated mice survived to Day 7 ([2]; oral Days 2-6): 5

SMILES: O=C(O)[C@@H]1Cc2c([nH]c3ccccc23)[C@@H](c2ccc(Br)cc2Cl)N1 [Compound 2]
EC50 [3]: 0.32 ± 0.06 µM

SMILES: O=C(O)[C@@H]1Cc2c([nH]c3ccccc23)[C@@H](c2ccccc2Cl)N1 [Compound 3]
EC50 [3]: 3.28 µM

SMILES: O=C(O)[C@@H]1Cc2c([nH]c3ccccc23)[C@@H](c2ccc(Cl)cc2)N1 [Compound 4]
EC50 [3]: 1.17 µM

SMILES: O=C(O)[C@@H]1Cc2c([nH]c3ccccc23)[C@@H](c2ccccc2)N1 [Compound 5]
EC50 [3]: > 10 µM

SMILES: NC(=O)[C@@H]1Cc2c([nH]c3ccccc23)[C@@H](c2ccc(Cl)cc2Cl)N1 [Compound 6]
EC50 [3]: 1.2 µM

SMILES: CNC(=O)[C@@H]1Cc2c([nH]c3ccccc23)[C@@H](c2ccc(Cl)cc2Cl)N1 [Compound 7]
EC50 [3]: 0.19 ± 0.03 µM

SMILES: CCNC(=O)[C@@H]1Cc2c([nH]c3ccccc23)[C@@H](c2ccc(Cl)cc2Cl)N1 [Compound 8]
EC50 [3]: ~5 µM

SMILES: CCCCNC(=O)[C@@H]1Cc2c([nH]c3ccccc23)[C@@H](c2ccc(Cl)cc2Cl)N1 [Compound 9]
EC50 [3]: > 10 µM

SMILES: CC(C)NC(=O)[C@@H]1Cc2c([nH]c3ccccc23)[C@@H](c2ccc(Cl)cc2Cl)N1 [Compound 10]
EC50 [3]: ~10 µM

EC50 [1, 7]: > 10 µM
SMILES: O=C(O)[C@@H]1Cc2c([nH]c3cccc(Br)c23)[C@@H](c2ccc(Cl)cc2Cl)N1 [Compound 18a]

loss of growth inhibition potency (EC50) relative to 1 [1]: 17 fold
EC50 [1, 7]: 4.3 ± 0.6 µM
SMILES: O=C(O)[C@@H]1Cc2c([nH]c3cc(Br)ccc23)[C@@H](c2ccc(Cl)cc2Cl)N1 [Compound 18c]

EC50 [1, 7]: > 10 µM
SMILES: O=C(O)[C@@H]1Cc2c([nH]c3c(Br)cccc23)[C@@H](c2ccc(Cl)cc2Cl)N1 [Compound 18d]

loss of growth inhibition potency (EC50) relative to 1 [1]: 5 fold
EC50 [1, 7]: 1.3 ± 0.1 µM
SMILES: O=C(O)[C@@H]1Cc2c([nH]c3cc(Cl)ccc23)[C@@H](c2ccc(Cl)cc2Cl)N1 [Compound 19c]

EC50 [1, 7]: 1.25 to 2.5 µM
SMILES: O=C(O)[C@@H]1Cc2c([nH]c3ccc(F)cc23)[C@@H](c2ccc(Cl)cc2Cl)N1 [Compound 20b]

EC50 [1, 7]: 0.964 ± 0.063 µM
SMILES: O=C(O)[C@@H]1Cc2c([nH]c3cc(F)cc(F)c23)[C@@H](c2ccc(Cl)cc2Cl)N1 [Compound 20e]
% recovery (200 μM IPP) [4]: 80%@10 μM

EC50 [1, 7]: > 10 µM
SMILES: N#Cc1cccc2[nH]c3c(c12)C[C@@H](C(=O)O)N[C@@H]3c1ccc(Cl)cc1Cl [Compound 21a]

EC50 [1, 7]: > 10 µM
SMILES: N#Cc1ccc2[nH]c3c(c2c1)C[C@@H](C(=O)O)N[C@@H]3c1ccc(Cl)cc1Cl [Compound 21b]

EC50 [1, 7]: > 20 µM
SMILES: N#Cc1ccc2c3c([nH]c2c1)[C@@H](c1ccc(Cl)cc1Cl)N[C@H](C(=O)O)C3 [Compound 21c]

% drug remaining ([5]; 0 min): 100%
% drug remaining ([5]; 45 min): 27%
% drug remaining ([5]; 90 min): 5%
SMILES: O=c1ccc2ccccc2o1 [coumarin]
